Experimental data: patent US20210391038A1, “SPECIFICALLY-SHAPED CRYSTAL OF COMPOUND AND METHOD FOR PRODUCING SAME” (TOWA PHARMACEUTICAL CO., LTD., priority 2018, published 2021)
Where a name gives a salt, the structure may show the parent alone.

Legend:
Assay type in all cases: physicochemical
[1] = Particle size distribution (d50, sharpness index); parameters: key to sharpness index of the crystal thus obtained / sharpness index of the fine powders: calculated by formula from d10, d50, d90; 1.0 = most uniform particle size; conditions: for sharpness index of the crystal thus obtained: calculated from d10, d50, d90; for d50 of the crystal thus obtained: dry particle size distribution, volume based; for d50: samples of filtration test (Table 7)
Description: d10 in the present description is a value obtained from a particle size distribution analyzer, and represents a particle size of a particle corresponding to 10% of accumulation from the smaller particle side in the particle size distribution based on the volume.
d50 in the present description is a value obtained from a particle size distribution analyzer, and represents a particle size of a particle corresponding to 50% of accumulation from the smaller particle side in the particle size distribution based on the volume.
“Sharpness index” in the present description is an index representing the uniformity of a particle size of a particle in a powder, and a sharpness index of 1.0 represents a powder having the most uniform particle size. The closer the sharpness index is to 1.0, the more the particle size of the powder is uniform. Specifically, the sharpness index represents a value calculated using the following formula from the values of d10, d50, and d90 measured by a particle size distribution analyzer:
Images for measuring the number of particles were obtained by a scanner GT-X830 manufactured by SEIKO EPSON CORPORATION. The powder X-ray diffraction (XRD) was measured using a desktop X-ray diffraction device MiniFlex300 manufactured by Rigaku Corporation. […] The particle strength was measured using a particle hardness measuring device NEW GRANO manufactured by OKADA SEIKO CO., LTD. […] The purity of a compound was measured by a high performance liquid chromatograph (LC-20A) manufactured by Shimadzu Corporation.

[2] = Sphericity from SEM images (ImageJ); parameters: key: 1 = true sphere; closer to 1 = more spherical; mean of ≥5 particles; conditions: for sphericity of the spherulite: SEM image analysis, mean of particles
Description: In the present description, “spherulite” means a crystal aggregate (polycrystal) which has a radial or concentric thin layered structure and has a spherical outer shape. Whether the crystal obtained by the method of the present invention is a spherulite or not can be determined, for example, by observing the outer shape of the crystal using SEM. For example, it can be discriminated by cutting the crystal aggregate and observing the internal structure thereof using SEM. The sphericity of the spherulite obtained by the method of the present invention is usually 0.60 or more, preferably 0.70 or more, more preferably 0.80 or more, particularly preferably 0.90 or more, and most preferably 0.95 or more. The sphericity can be calculated by the following method.
When an image of particles taken by SEM is analyzed using image processing software ImageJ, a coordinate group representing the position of pixels forming the outline of a particle is obtained. The length of the coordinate group is defined as N, and one pixel coordinate of each outline is defined as p[i] (1≤i≤N). The angle between a straight line l(k) connecting two points p[k] and p[k+N/D] and a straight line m(k) connecting two points p[k+N/D] and p[k+2N/D] is defined as θ(k) (−180°<θ<180°) (1≤k≤N, 1≤D≤N). D corresponds to the number of partitions of the outline. When N/D is not a natural number, the value is defined as the quotient obtained by dividing N by D. By calculating this angle with k=1 to N, N pieces of θ value can be obtained.
When the particle is a true sphere, θ(k) is 360/D, and the closer the particle is to a true sphere, the closer θ(k) is to this value. The error between θ(k) and the true value 360/D is evaluated by the root-mean-square error (RMSE) of the following formula:
Using the RMSE value of when D is 10 (θ(k)=36°), the sphericity is defined by the following formula: […]
The sphericity is 1 in a true sphere, and the closer the particle is to a true sphere, the closer the sphericity is to 1. Meanwhile, the sphericity of an ellipse whose long axis is infinitely long is zero. The sphericity is measured for five or more particles to calculate the mean. This mean is defined as the sphericity of each sample (see FIGS. 42 and 43).

[3] = Measurement of critical degree of supersaturation of spherulite; conditions: for Critical degree of supersaturation S Experimental value: solvent 1 MeOH
Description: “Supersaturated solution” in the present description means a solution in a state of containing a solute exceeding the solubility. As the degree of supersaturation, “degree of supersaturation” can be used. Regarding the degree of supersaturation, when the concentration (mass concentration (g/g)) of a compound dissolved in a supersaturated solution is defined as C and the solubility of the compound is defined as Cs, the degree of supersaturation S can be represented by the following formula: […]
“Critical degree of supersaturation” in the present description means the lowest degree of supersaturation required to obtain a specifically-shaped crystal. […] The value of a critical degree of supersaturation varies depending on the shape of a crystal. For example, all of values of a critical degree of supersaturation required to obtain a plate crystal, a critical degree of supersaturation required to obtain a needle crystal, and a critical degree of supersaturation required to obtain a spherulite are different. The critical degree of supersaturation required to obtain a spherulite is higher than the critical degree of supersaturation required to obtain a plate crystal or a needle crystal.
The actual measured value of the critical degree of supersaturation (S*) can be measured as follows:
(1) 100 particles are observed by SEM. (2) 5 to 10 particles whose shape is close to a desired specific shape are selected, and the shape is evaluated. In particular, when the desired specific shape is a sphere, the sphericity is evaluated. (3) Based on the evaluation index of the shape, whether the selected particles have the desired specific shape or not is determined. In particular, when the desired specific shape is a sphere, the case where the sphericity is 0.60 or more is determined as a spherulite. (4) The above-mentioned operation is performed for each sample having a different degree of supersaturation during crystallization, and the minimum value of a degree of supersaturation having the specifically-shaped particles is determined as the critical degree of supersaturation. The difference between the maximum value of a degree of supersaturation not having the specifically-shaped particles and the critical degree of supersaturation should be 20% or less.
The critical degree of supersaturation of a spherulite of ketotifen fumarate was determined as follows. To 2.0 g of ketotifen fumarate, 10 mL (5 v/w) of methanol was added, followed by reflux to completely dissolve. This solution was added dropwise to 50 mL of isopropanol at 20° C. to prepare a supersaturated solution of ketotifen fumarate. The degree of supersaturation of the supersaturated solution at the end of dropwise addition was 9.0. The supersaturated solution was crystallized. The crystal was collected by filtration, followed by drying under reduced pressure at 40° C., thus obtaining a crystal of ketotifen fumarate.
Similarly, when a substrate and a solvent different from those mentioned above are used, a plurality of samples having a different degree of supersaturation are prepared and crystallized, and then the critical degree of supersaturation of the spherulite was measured.

| sphericity of the spherulite [2] | sharpness index of the crystal thus obtained [1] | d50 of the crystal thus obtained [1] | Compound | other results |
| --- | --- | --- | --- | --- |
| 0.69±0.18 | 2.29 | 116 μm | Cc1cccc(C)c1NC(=O)CC12CCCN1CCC2.Cl [Example 25, pilsicainide hydrochloride anhydride] |  |
| 0.93±0.04 | 3.77 | 33.5 μm | Cc1cc(N2CCN([C@@H]3CN[C@H](C(=O)N4CCSC4)C3)CC2)n(-c2ccccc2)n1 [Example 22, teneligliptin hydrobromide hydrate] |  |
| 0.98±0.01 | 2.15 | 105 μm | O=C(O)CCCN1CCC(O[C@@H](c2ccc(Cl)cc2)c2ccccn2)CC1.O=S(=O)(O)c1ccccc1 [Example 30, bepotastine besilate] |  |
| 0.96±0.02 | 1.7 | 133 μm | COC(=O)[C@H](c1ccccc1Cl)N1CCc2sccc2C1 [Example 16, clopidogrel sulfate] |  |
| 0.78±0.02 |  |  | CN1CCC(=C2c3ccccc3CC(=O)c3sccc32)CC1 [Example 1, ketotifen fumarate] |  |
| 0.98±0.01 | 1.66 | 148 μm | Nc1nc(CC(=O)Nc2ccc(CCNC[C@H](O)c3ccccc3)cc2)cs1 [Example 27, mirabegron] |  |

Continued, compound first:

| Compound | sphericity of the spherulite [2] | sharpness index of the crystal thus obtained [1] | d50 of the crystal thus obtained [1] | other results |
| --- | --- | --- | --- | --- |
| COc1ccc2[n-]c([S@@+]([O-])Cc3ncc(C)c(OC)c3C)nc2c1.COc1ccc2[n-]c([S@@+]([O-])Cc3ncc(C)c(OC)c3C)nc2c1.O.O.O.[Mg+2] [Example 7, esomeprazole magnesium trihydrate] |  |  |  | sharpness index of the crystal thus obtained ([1]; trihydrate): 1.40; d50 of the crystal thus obtained ([1]; trihydrate): 189 μm; sphericity of the spherulite ([2]; trihydrate): 0.97±0.01 |
| N#C[C@@H]1CCCN1C(=O)CNC12CC3CC(CC(O)(C3)C1)C2 [Example 20, vildagliptin] | 0.99±0.01 |  |  |  |
| NC(CCC(=O)O)C(=O)O (racemic) [Example 14, DL-glutamic acid] | 0.95±0.03 |  |  |  |
| CC[C@H]1OC(=O)[C@H](C)[C@@H](O[C@H]2C[C@@](C)(OC)[C@@H](O)[C@H](C)O2)[C@H](C)[C@@H](O[C@@H]2O[C@H](C)C[C@H](N(C)C)[C@H]2O)[C@](C)(OC)C[C@@H](C)C(=O)[C@H](C)[C@@H](O)[C@]1(C)O [Example 13, clarithromycin] | 0.87±0.08 | 4.6 | 16 μm |  |
| COc1ccc2[n-]c([S@@+]([O-])Cc3ncc(C)c(OC)c3C)nc2c1.COc1ccc2[n-]c([S@@+]([O-])Cc3ncc(C)c(OC)c3C)nc2c1.O.O.O.[Mg+2] [Example 10(2), esomeprazole magnesium trihydrate] |  |  |  | sharpness index of the crystal thus obtained ([1]; trihydrate): 1.48; d50 of the crystal thus obtained ([1]; trihydrate): 9.6 μm; d50 ([1]; trihydrate): 9.6 μm; sphericity of the spherulite ([2]; trihydrate): 0.80±0.05; sphericity of the non-spherulite ([2]; non-spherulite crystals, trihydrate): 0.50±0.06 |
| Cc1c(OCC(F)(F)F)ccnc1C[S+]([O-])c1nc2ccccc2[nH]1 (stereo not drawn) [Example 11, lansoprazole] | 0.94±0.04 |  |  |  |
| N[C@@H](CCC(=O)N[C@@H](CS)C(=O)NCC(=O)O)C(=O)O [Example 23, glutathione] | 0.85±0.07 | 2.27 | 48.4 μm |  |
| CC[C@H]1OC(=O)[C@H](C)[C@@H](O[C@H]2C[C@@](C)(OC)[C@@H](O)[C@H](C)O2)[C@H](C)[C@@H](O[C@@H]2O[C@H](C)C[C@H](N(C)C)[C@H]2O)[C@](C)(O)C[C@@H](C)CN(C)[C@H](C)[C@@H](O)[C@]1(C)O [Example 12, azithromycin monohydrate] | 0.89±0.02 | 1.5 | 75 μm |  |
| COc1ccc2[n-]c([S@@+]([O-])Cc3ncc(C)c(OC)c3C)nc2c1.COc1ccc2[n-]c([S@@+]([O-])Cc3ncc(C)c(OC)c3C)nc2c1.O.O.O.[Mg+2] [Example 10(1), esomeprazole magnesium trihydrate] |  |  |  | sharpness index of the crystal thus obtained ([1]; trihydrate): 1.51; d50 of the crystal thus obtained ([1]; trihydrate): 39.9 μm; d50 ([1]; trihydrate): 39.9 μm; sphericity of the spherulite ([2]; trihydrate): 0.97±0.01 |
| Cc1c(OCC(F)(F)F)ccnc1C[S+]([O-])c1nc2ccccc2[nH]1 (stereo not drawn) [Lansoprazole] |  |  |  | actual measured value of the critical degree of supersaturation [3]: 10.9; Critical degree of supersaturation S Experimental value ([3]; entry 2, solvent 2 H2O, solvent 2/solvent 1 ratio 3, crystallization 0 °C): 6.9; Critical degree of supersaturation S Experimental value ([3]; entry 20, solvent 2 H2O, solvent 2/solvent 1 ratio 3, crystallization 15 °C): 12.6 |
| COc1ccc2[n-]c([S+]([O-])Cc3ncc(C)c(OC)c3C)nc2c1.COc1ccc2[n-]c([S+]([O-])Cc3ncc(C)c(OC)c3C)nc2c1.[Mg+2] (stereo not drawn) [Esomeprazolc magnesium hydrate] |  |  |  | Critical degree of supersaturation S Experimental value ([3]; entry 1, solvent 2 H2O, solvent 2/solvent 1 ratio 1, crystallization 35 °C): 1.4 |
| Cc1cc(N2CCN([C@@H]3CN[C@H](C(=O)N4CCSC4)C3)CC2)n(-c2ccccc2)n1 [Teneligliptin hydrobromide hydrate] |  |  |  | actual measured value of the critical degree of supersaturation [3]: 7.9; Critical degree of supersaturation S Experimental value ([3]; entry 32, solvent 2 1-BuOH, solvent 2/solvent 1 ratio 10, crystallization 0 °C): 5.2; Critical degree of supersaturation S Experimental value ([3]; entry 33, solvent 2 1-BuOH, solvent 2/solvent 1 ratio 10, crystallization 20 °C): 7.9; Critical degree of supersaturation S Experimental value ([3]; entry 34, solvent 2 1-BuOH, solvent 2/solvent 1 ratio 10, crystallization 40 °C): 12.6 |
